Measurements as given in patent publication US20250339409A1, “USES OF PAN BET INHIBITORS” (VYNE THERAPEUTICS INC., priority 2021, published 2025).
“And” between values parts separate entries of the source, which are not always exact repeats. Equal entries are not always repeated. Marks after values point to notes of the source that are not given here.

Test system: anti collagen antibodies induced arthritis (ACAIA)
Assay: Anti collagen antibodies induced arthritis (ACAIA) in mice, intra-articular treatment: paw thickness, arthritis clinical score, body weight;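 note: mouse arthritis induced by IV anti-collagen mAb on day 0 plus IP LPS on day 4, with body weight, caliper paw thickness and 0-4 paw score tracked against a day 0 baseline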

In the case of `Cn1cc(-c2cccc(O)c2Oc2ccccc2)c2cc[nH]c2c1=O` [BETi1], the “Paw thickness of treated leg (Avg.)” value (0.1 mg/kg IA (Group 4), Day 7) is reported as 2.82 mm, the “Paw thickness of untreated leg (Avg.)” value (0.1 mg/kg IA (Group 4), Day 7) is reported as 2.87 mm and the “Percent change of weight per day (Av)” value (0.1 mg/kg IA (Group 4), Day 7) is reported as 88.48%. For the same compound, the “Δ clinical score untreated -treated, Avg. Delta” value (0.1 mg/kg IA (Group 4), Day 7) was 0.00 points, the “Clinical score of treated leg (Avg.)” value (0.1 mg/kg IA (Group 4), Day 8) was 2.29 points and the “Paw thickness Avg. Delta untreated -treated” value (0.1 mg/kg IA (Group 4), Day 8) was −0.05 mm. For the same compound, the “Paw thickness of treated leg (Avg.)” value (0.1 mg/kg IA (Group 4), Day 8) was 2.86 mm, the “Paw thickness of untreated leg (Avg.)” value (0.1 mg/kg IA (Group 4), Day 8) was 2.81 mm and the “Percent change of weight per day (Av)” value (0.1 mg/kg IA (Group 4), Day 8) was 87.72%. The “Δ clinical score untreated -treated, Avg. Delta” value (0.1 mg/kg IA (Group 4), Day 8) was 0.00 points, the “Clinical score of treated leg (Avg.)” value (0.1 mg/kg IA (Group 4), Day 10) was 2.43 points and the “Paw thickness Avg. Delta untreated -treated” value (0.1 mg/kg IA (Group 4), Day 10) was 0.05 mm. The “Paw thickness of treated leg (Avg.)” value (0.1 mg/kg IA (Group 4), Day 10) was 2.94 mm, the “Paw thickness of untreated leg (Avg.)” value (0.1 mg/kg IA (Group 4), Day 10) was 2.99 mm and the “Percent change of weight per day (Av)” value (0.1 mg/kg IA (Group 4), Day 10) was 88.75%. For the same compound, the “Δ clinical score untreated -treated, Avg. Delta” value (0.1 mg/kg IA (Group 4), Day 10) was 0.14 points, the “Clinical score of treated leg (Avg.)” value (0.1 mg/kg IA (Group 4), Day 12) was 2.57 points and the “Paw thickness Avg. Delta untreated -treated” value (0.1 mg/kg IA (Group 4), Day 12) was −0.05 mm. For the same compound, the “Paw thickness of treated leg (Avg.)” value (0.1 mg/kg IA (Group 4), Day 12) was 3.10 mm, the “Paw thickness of untreated leg (Avg.)” value (0.1 mg/kg IA (Group 4), Day 12) was 3.05 mm and the “Percent change of weight per day (Av)” value (0.1 mg/kg IA (Group 4), Day 12) was 93.51%. For the same compound, the “Δ clinical score untreated -treated, Avg. Delta” value (0.1 mg/kg IA (Group 4), Day 12) was 0.43 points, the “Clinical score of treated leg (Avg.)” value (1 mg/kg IA (Group 3), Baseline) was 0.00 points and the “Paw thickness Avg. Delta untreated -treated” value (1 mg/kg IA (Group 3), Baseline) was 0.04 mm. The “Paw thickness of treated leg (Avg.)” value (1 mg/kg IA (Group 3), Baseline) was 2.05 mm, the “Paw thickness of untreated leg (Avg.)” value (1 mg/kg IA (Group 3), Baseline) was 2.09 mm and the “Percent change of weight per day (Av)” value (1 mg/kg IA (Group 3), Baseline) was 100.00%. For the same compound, the “Percent change of weight per day (individual animal)” value (1 mg/kg IA (Group 3), Baseline) was 100%, the “Δ clinical score untreated -treated, Avg. Delta” value (1 mg/kg IA (Group 3), Baseline) was 0.00 points and the “Clinical score of treated leg (Avg.)” value (1 mg/kg IA (Group 3), Day 3) was 0.00 points. For the same compound, the “Paw thickness Avg. Delta untreated -treated” value (1 mg/kg IA (Group 3), Day 3) was 0.02 mm, the “Paw thickness of treated leg (Avg.)” value (1 mg/kg IA (Group 3), Day 3) was 2.11 mm and the “Paw thickness of untreated leg (Avg.)” value (1 mg/kg IA (Group 3), Day 3) was 2.13 mm. The “Percent change of weight per day (Av)” value (1 mg/kg IA (Group 3), Day 3) was 99.97%, the “Percent change of weight per day (individual animal)” value (1 mg/kg IA (Group 3), Day 3) was 100.9804% and 98.22% and 102.4631% and 98.49% and 97.67% and the “Δ clinical score untreated -treated, Avg. Delta” value (1 mg/kg IA (Group 3), Day 3) was 0.00 points. The “Clinical score of treated leg (Avg.)” value (1 mg/kg IA (Group 3), Day 4) was 0.00 points, the “Paw thickness Avg. Delta untreated -treated” value (1 mg/kg IA (Group 3), Day 4) was −0.03 mm and the “Paw thickness of treated leg (Avg.)” value (1 mg/kg IA (Group 3), Day 4) was 2.22 mm. The “Paw thickness of untreated leg (Avg.)” value (1 mg/kg IA (Group 3), Day 4) was 2.19 mm, the “Percent change of weight per day (Av)” value (1 mg/kg IA (Group 3), Day 4) was 101.40% and the “Percent change of weight per day (individual animal)” value (1 mg/kg IA (Group 3), Day 4) was 101.9608% and 100% (2×) and 103.9409% and 100.9302%. The “Δ clinical score untreated -treated, Avg. Delta” value (1 mg/kg IA (Group 3), Day 4) was 0.00 points, the “Clinical score of treated leg (Avg.)” value (1 mg/kg IA (Group 3), Day 5) was 0.00 points and the “Paw thickness Avg. Delta untreated -treated” value (1 mg/kg IA (Group 3), Day 5) was 0.04 mm. The “Paw thickness of treated leg (Avg.)” value (1 mg/kg IA (Group 3), Day 5) was 2.13 mm, the “Paw thickness of untreated leg (Avg.)” value (1 mg/kg IA (Group 3), Day 5) was 2.17 mm and the “Percent change of weight per day (Av)” value (1 mg/kg IA (Group 3), Day 5) was 91.68%. The “Percent change of weight per day (individual animal)” value (1 mg/kg IA (Group 3), Day 5) was 93.63% and 89.78% and 94.58% and 88.94% and 89.3%, the “Δ clinical score untreated -treated, Avg. Delta” value (1 mg/kg IA (Group 3), Day 5) was 0.00 points and the “Clinical score of treated leg (Avg.)” value (1 mg/kg IA (Group 3), Day 6) was 0.14 points. The “Paw thickness Avg. Delta untreated -treated” value (1 mg/kg IA (Group 3), Day 6) was 0.23* mm, the “Paw thickness of treated leg (Avg.)” value (1 mg/kg IA (Group 3), Day 6) was 2.27* mm and the “Paw thickness of untreated leg (Avg.)” value (1 mg/kg IA (Group 3), Day 6) was 2.50 mm. For the same compound, the “Percent change of weight per day (Av)” value (1 mg/kg IA (Group 3), Day 6) was 89.39%, the “Percent change of weight per day (individual animal)” value (1 mg/kg IA (Group 3), Day 6) was 91.67% and 82.67% and 92.61% and 90.45% and 89.77% and the “Δ clinical score untreated -treated, Avg. Delta” value (1 mg/kg IA (Group 3), Day 6) was 0.57 points. The “Clinical score of treated leg (Avg.)” value (1 mg/kg IA (Group 3), Day 7) was 0.71 points, the “Paw thickness Avg. Delta untreated -treated” value (1 mg/kg IA (Group 3), Day 7) was 0.56* mm and the “Paw thickness of treated leg (Avg.)” value (1 mg/kg IA (Group 3), Day 7) was 2.25** mm. The “Paw thickness of untreated leg (Avg.)” value (1 mg/kg IA (Group 3), Day 7) was 2.80 mm, the “Percent change of weight per day (Av)” value (1 mg/kg IA (Group 3), Day 7) was 89.93% and the “Percent change of weight per day (individual animal)” value (1 mg/kg IA (Group 3), Day 7) was 89.71% and 84% and 93.1% and 89.45% and 90.23%. The “Δ clinical score untreated -treated, Avg. Delta” value (1 mg/kg IA (Group 3), Day 7) was 0.71 points, the “Clinical score of treated leg (Avg.)” value (1 mg/kg IA (Group 3), Day 8) was 1.00 points and the “Paw thickness Avg. Delta untreated -treated” value (1 mg/kg IA (Group 3), Day 8) was 0.56 mm. The “Paw thickness of treated leg (Avg.)” value (1 mg/kg IA (Group 3), Day 8) was 2.36* mm, the “Paw thickness of untreated leg (Avg.)” value (1 mg/kg IA (Group 3), Day 8) was 2.92 mm and the “Percent change of weight per day (Av)” value (1 mg/kg IA (Group 3), Day 8) was 91.22%. The “Percent change of weight per day (individual animal)” value (1 mg/kg IA (Group 3), Day 8) was 90.69% and 88% and 92.61% and 89.95%, the “Δ clinical score untreated -treated, Avg. Delta” value (1 mg/kg IA (Group 3), Day 8) was 1.43 points and the “Clinical score of treated leg (Avg.)” value (1 mg/kg IA (Group 3), Day 10) was 0.71 points. The “Paw thickness Avg. Delta untreated -treated” value (1 mg/kg IA (Group 3), Day 10) was 0.74 mm, the “Paw thickness of treated leg (Avg.)” value (1 mg/kg IA (Group 3), Day 10) was 2.21* mm and the “Paw thickness of untreated leg (Avg.)” value (1 mg/kg IA (Group 3), Day 10) was 2.95 mm. The “Percent change of weight per day (Av)” value (1 mg/kg IA (Group 3), Day 10) was 93.11%, the “Percent change of weight per day (individual animal)” value (1 mg/kg IA (Group 3), Day 10) was 92.16% and 94.67% and 93.6% and 93.47% and the “Δ clinical score untreated -treated, Avg. Delta” value (1 mg/kg IA (Group 3), Day 10) was 1.29 points. The “Clinical score of treated leg (Avg.)” value (1 mg/kg IA (Group 3), Day 12) was 0.57 points, the “Paw thickness Avg. Delta untreated -treated” value (1 mg/kg IA (Group 3), Day 12) was 0.80 mm and the “Paw thickness of treated leg (Avg.)” value (1 mg/kg IA (Group 3), Day 12) was 2.18 mm. For the same compound, the “Paw thickness of untreated leg (Avg.)” value (1 mg/kg IA (Group 3), Day 12) was 2.98 mm, the “Percent change of weight per day (Av)” value (1 mg/kg IA (Group 3), Day 12) was 97.09* percent and the “Percent change of weight per day (individual animal)” value (1 mg/kg IA (Group 3), Day 12) was 95.1% and 100% and 98.03% and 96.98% and 93.49%. For the same compound, the “Δ clinical score untreated -treated, Avg. Delta” value (1 mg/kg IA (Group 3), Day 12) was 1.86 points, the “reduction of arthritis score, treated vs untreated paw” value (1 mg/kg IA, day 12) was 76.5% and the “reduction of paw thickness, treated vs untreated paw” value (1 mg/kg IA, day 12) was 26.8%.
